According to patent US12629406B2, “Alterations in endothelin receptors following hemorrhage and resuscitation by centhaquin” (MIDWESTERN UNIVERSITY, priority 2018, dated 2026):
Several values for one entry are separate records, joined by “and”; a condition that tells them apart may be missing. Equal entries are not always repeated.

How the values were obtained:
[1] = cited from earlier work
[2] = Rat hemorrhagic shock, hypertonic saline resuscitation: hematocrit, arterial blood gases, lactate, base deficit; type: in vivo
Procedure: Animals. Male Sprague-Dawley rats (340 to 380 g) (Envigo, Indianapolis, IN) were housed for at least 4 days in a room with controlled temperature (23±1° C.), humidity (50±10%) and light (6:00 A.M. to 6:00 P.M.) before being used. Food and water were made available continuously. Animal care and use for experimental procedures were approved by the Institutional Animal Care and Use Committee of the Midwestern University. All anesthetic and surgical procedures were in compliance with the guidelines established by the Animal Care Committee.
Determination of arterial blood gases and base deficit. Baseline arterial blood pH, Po2, Pco2, Na^+, K^+ and lactate were monitored prior to induction of shock, 30 minutes after induction of shock, and 30 and 60 minutes following vehicle or centhaquin resuscitation. Blood samples (0.15 ml) were drawn from the arterial cannula using blood gas sampling syringes (Innovative Medical Technologies, Inc. Leawood, K S) and analyzed using a pHOx Ultra analyzer (Nova Biomedical Corporation, Waltham, MA). The base deficit was calculated using the formula (Davis et al. 1998; Paladino et al. 2008): SBD=0.9287×[HCO3^−−24.4+14.83×(pH-7.4)]
Induction of Hemorrhagic Shock. Hemorrhage was induced by withdrawing blood from the femoral artery at a rate of approximately 0.5 to 1 mL/min until a MAP of 35 mmHg was reached. This MAP was maintained for 30 min by further withdrawal of blood, if necessary. The hemorrhagic shock model used in the present study is a well-established rodent model of manageable pressure hemorrhage (Buehler et al. 2000; Gulati et al. 1997a; Gulati and Sen 1998). The volume of blood loss was about approximately 8.0 ml in each rat and was similar in various groups, amounting to approximately 40% of the total blood. Measured hematocrit levels were similar in various groups. The duration of blood withdrawal was approximately 15 minutes.
Experimental design. To determine the resuscitative effect of centhaquin on cardiovascular system and plasma cytokines in hemorrhagic shock, rats were randomly divided into five groups, Group 1: Sham control (Non-hemorrhaged) (n=5), Group 2: Hemorrhage with no resuscitation (n=5); Group 3: Hemorrhage followed by resuscitation with 3% hypertonic saline (vehicle) (n=5); Group 4: Hemorrhage followed by resuscitation with vehicle plus centhaquin (0.017 mg/kg) (n=5); and Group 5: Hemorrhage followed by resuscitation with vehicle plus centhaquin (0.05 mg/kg) (n=5). Resuscitation was started 30 min after induction of hemorrhagic shock as an intravenous infusion (1 mL/min) through femoral vein using an infusion pump (Harvard Apparatus Infusion/Withdrawal Pump, Millis, MA). The blood samples, for biochemical estimations, were collected at 30 minutes of resuscitation and cardiovascular parameters were monitored till 60 minutes after which the animal was sacrificed. The volume of resuscitative solution was kept equal to the volume of blood loss.

[3] = 60 min after resuscitation, centhaquin 0.017 mg/kg in 3% saline
[4] = 60 min after resuscitation, centhaquin 0.05 mg/kg in 3% saline
[5] = Baseline, before hemorrhage, centhaquin 0.017 mg/kg group
[6] = Baseline, before hemorrhage, centhaquin 0.05 mg/kg group
[7] = H. Shock, before resuscitation, centhaquin 0.017 mg/kg group
[8] = H. Shock, before resuscitation, centhaquin 0.05 mg/kg group
[9] = centhaquin 0.017 and 0.05 mg/kg

Cc1cccc(N2CCN(CCc3ccc4ccccc4n3)CC2)c1 [centhaquin, 2-[2-(4-(3-methyphenyl)-1-piperazinyl)]ethyl-quinoline]
survival of hemorrhaged rats ([1]; administered in one-fifth the volume of blood loss): improved the survival
blood lactate ([1]; rat model of hemorrhagic shock): decreased blood lactate
cardiac output (CO) ([1]; rat model of hemorrhagic shock): significantly improved CO
survival ([1]; rat model of hemorrhagic shock): improved survival
Base-deficit [2, 3]: −12.0±0.2 mEq/L and −12.0 ± 0.2^#Δ mEq/L
Hematocrit [2, 3]: 21.5 ± 1.8%
Lactate [2, 3]: 1.9 ± 0.1^#Δ mmol/L
PCO2 [2, 3]: 26.0 ± 1.6 mmHg
arterial blood pH [2, 3]: 7.24 ± 0.02^Δ
pO2 [2, 3]: 131.3 ± 5.4 mmHg
Base-deficit [2, 4]: −11.6±0.5 mEq/L and −11.6 ± 0.5^#Δ mEq/L
Hematocrit [2, 4]: 21.3 ± 1.3%
Lactate [2, 4]: 1.7 ± 0.2^#Δ mmol/L
PCO2 [2, 4]: 27.3 ± 1.9 mmHg
arterial blood pH [2, 4]: 7.28 ± 0.01^Δ
pO2 [2, 4]: 121.3 ± 4.6 mmHg
Base-deficit [2, 5]: −2.9 ± 0.3 mEq/L
Hematocrit [2, 5]: 36.8 ± 1.3%
Lactate [2, 5]: 1.5 ± 0.2 mmol/L
PCO2 [2, 5]: 33.8 ± 1.2 mmHg
arterial blood pH [2, 5]: 7.38 ± 0.01
pO2 [2, 5]: 125.5 ± 1.9 mmHg
Base-deficit [2, 6]: −2.8 ± 0.3 mEq/L
Hematocrit [2, 6]: 39.3 ± 1.6%
Lactate [2, 6]: 1.8 ± 0.1 mmol/L
PCO2 [2, 6]: 34.5 ± 2.1 mmHg
arterial blood pH [2, 6]: 7.38 ± 0.01
pO2 [2, 6]: 120.2 ± 1.2 mmHg
Base-deficit [2, 7]: −15.3 ± 0.4 mEq/L
Hematocrit [2, 7]: 24.8 ± 1.5 %
Lactate [2, 7]: 7.6 ± 0.3 mmol/L
PCO2 [2, 7]: 15.9 ± 0.9 mmHg
arterial blood pH [2, 7]: 7.23 ± 0.02
pO2 [2, 7]: 145.6 ± 1.9 mmHg
Base-deficit [2, 8]: −15.4 ± 0.9 mEq/L
Hematocrit [2, 8]: 22.2 ± 0.7 %
Lactate [2, 8]: 7.4 ± 0.4 mmol/L
PCO2 [2, 8]: 16.3 ± 1.5 mmHg
arterial blood pH [2, 8]: 7.25 ± 0.03
pO2 [2, 8]: 142.8 ± 1.8 mmHg
change in hematocrit after treatment [2, 9]: no change
effect on blood pH of hemorrhaged rats [2, 9]: significantly prevented the reduction of pH
blood lactate levels compared to the hypertonic saline group ([2]; centhaquin 0.017 and 0.05 mg/kg, p<0.001): significant decrease
effect on hemorrhage-induced decrease in pCO2 and increase in pO2 ([2]; resuscitation with centhaquin): not affected
